Measured values taken from patent publication US20220119379A1, “IMMUNOMODULATOR” (HITGEN INC., priority 2019, published 2022).
Like-named read-outs stand apart in the source and are kept apart here.

Experiments:
Sting protein [1] = biological target: Sting protein (Homo sapiens, UniProt Q86WV6); assay: Binding affinity test of the compound and Sting protein by protein thermal transfer test (TSA); conditions: Kd fitted from change of ΔTm with compound concentration
Description: The protein thermal transfer test (TSA) was used to determine the binding affinity of the compound to Sting protein. The 100 ug/ml Sting protein was mixed with different concentrations of the compound and 5× SYPRO Orange dye in a buffer of 20 mM Hepes, 150 mM NaCl, 1 mM MgCl2, 1 mM DTT, pH=7.5. The protein dissolution curve was measured on a qPCR instrument, the Tm value was fitted with Protein Thermal Shift Software 1.3 software, and the Tm difference of the protein was calculated when different concentrations of compound and no compound were added. The dissociation constant Kd was fitted and obtained according to the change of ΔTm with the concentration of the compound. […] The Kd value of each compound is classified according to the following instructions: […]

Sting protein [2] = biological target: T1, Sting protein (Homo sapiens, UniProt Q86WV6, G230A/H232R/R293Q/R71H); assay: Agonistic function test on Sting protein: IFN-β and CXCL10 (IP10) cytokines produced by THP1 cells (ELISA); type: cell-based; conditions: for EC50: 18 hours, ELISA of supernatant; for activity of stimulating IFN-β and CXCL10 (IP10) cytokines produced by THP1 cells (in words): listed compounds compared with the reference compound
T1 construct: endogenous in cells; host or cells: THP1 cells (Shanghai Cell Bank)
Description: In this experiment, the function of sting agonist was evaluated by detecting the changes of IFN-β and CXCL10 (IP10) cytokines produced by human peripheral blood mononuclear cell line THP1 cells (Shanghai Cell Bank) stimulated by the compounds. On the first day of the experiment, the ELISA plate was coated according to the IFN-β (R&D, #DY814-05) and IP10 (BD, #550926) ELISA test kit instructions. The compound was dissolved into DMSO stock solution and diluted with culture medium to a 2× working concentration, added to a 96-well plate, 100 μL per well. The THP1 cells in the logarithmic growth phase were taken to count, and were diluted to a concentration of 2*10^6/mL, added to the above-mentioned 96-well plate containing the compounds, with […], per well, mixed well, and incubated in a 37° C., 5% CO2 incubator for 18 hours. On the second day, the above cell culture supernatant was taken, 100 μL per well, and tested according to IFN-β and IP10 ELISA test kits respectively. The OD450 value was read, and converted into IFN-β and IP10 concentration according to the standard curve, and fitted with GraphPad 5.0 to calculate the EC50 value of the dose-efficiency curve.

Sequence of Sting protein (Homo sapiens, UniProt Q86WV6) (Q86WV6 whole entry H232R, species assumed): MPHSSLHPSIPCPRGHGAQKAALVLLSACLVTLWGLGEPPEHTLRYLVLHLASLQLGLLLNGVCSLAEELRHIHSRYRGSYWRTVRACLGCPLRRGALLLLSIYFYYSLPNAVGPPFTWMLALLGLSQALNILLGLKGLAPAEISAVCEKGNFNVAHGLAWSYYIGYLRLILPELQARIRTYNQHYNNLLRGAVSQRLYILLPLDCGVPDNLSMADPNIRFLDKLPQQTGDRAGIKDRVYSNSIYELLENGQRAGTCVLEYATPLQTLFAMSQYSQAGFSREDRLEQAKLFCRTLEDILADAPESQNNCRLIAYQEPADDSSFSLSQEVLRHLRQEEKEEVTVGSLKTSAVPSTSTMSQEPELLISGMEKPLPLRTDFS
T1 sequence (Q86WV6 whole entry R71H/G230A/H232R/R293Q): as the sequence (Q86WV6 whole entry H232R, species assumed) above, with R71H, G230A, R293Q counted along it

Row | Kd (Sting protein [1]) [nM] | EC50 (Sting protein [2]; read-out: IFN-β EC50) [nM] | EC50 (Sting protein [2]; read-out: IP10 EC50) [nM] | activity of stimulating IFN-β and CXCL10 (IP10) cytokines produced by THP1 cells (in words) (Sting protein [2]) | Compound
1 | 1000 to 10000 | 10 to 100 | < 10 | comparable or even higher activity | CCc1nc(C)sc1C(=O)Nc1nc2cc(C(N)=O)cc(SC)c2n1C/C=C/Cn1c(NC(=O)c2c(F)c(C)nn2CC)nc2cc(C(N)=O)cc(OCCCN3CCOCC3)c21 [Example 52]
2 | 1000 to 10000 | 100 to 1000 | 10 to 100 |  | CCc1nc(C)sc1C(=O)Nc1nc2cc(C(N)=O)cc(OCCCN3CCN(C4CC4)CC3)c2n1C/C=C/Cn1c(NC(=O)c2cc(C)nn2CC)nc2cc(C(N)=O)cc(OC)c21 [Example 10]
3 | 1000 to 10000 |  |  |  | CCn1nc(C)cc1C(=O)Nc1nc2cc(C(N)=O)cc(OCCCN3CCOCC3)c2n1C/C=C/Cn1c(NC(=O)c2cc(C)nn2CC)nc2cc(C(N)=O)cc(SC)c21 [Example 54, (E)-1-(4-(5-carbamoyl-2-(1-ethyl-3-methyl-1H-pyrazole-5-formylamino)-7-(3-morpholinopropoxy)-1H-benzo[d]imidazol-1-yl)but-2-en-1-yl)-2-(1-ethyl-3-methyl-1H-pyrazole-5-carboxamino)-7-(methylthio)-1H-benzo[d]imidazole-5-formylamide]
4 | 1000 to 10000 | 100 to 1000 | 10 to 100 |  | CCc1nc(C)sc1C(=O)Nc1nc2cc(C(N)=O)cc(OCCCN3CCN(C(C)C)CC3)c2n1C/C=C/Cn1c(NC(=O)c2cc(C)nn2CC)nc2cc(C(N)=O)cc(SC)c21 [Example 18]
5 | 1000 to 10000 | 10 to 100 | < 10 | comparable or even higher activity | CCn1nc(C)c(F)c1C(=O)Nc1nc2cc(C(N)=O)cc(OCCCN3CCOCC3)c2n1C/C=C/Cn1c(NC(=O)c2c(F)c(C)nn2CC)nc2cc(C(N)=O)cc(SC)c21 [Example 53, (E)-1-(4-(5-carbamoyl-2-(1-ethyl-4-fluoro-3-methyl-1H-pyrazole-5-carboxamino)-7-(3-morpholinopropoxy)-1H-benzo[d]imidazol-1-yl)but-2-en-1-yl)-2-(1-ethyl-4-fluoro-3-methyl-1H-pyrazole-5-formylamino)-7-(methylthio)-1H-benzo[d]imidazole-5-carboxamide]
6 | 1000 to 10000 | 100 to 1000 | 100 to 1000 |  | CCc1nc(C)sc1C(=O)Nc1nc2cc(C(N)=O)cc(OC)c2n1C/C=C/Cn1c(NC(=O)c2cc(C)nn2CC)nc2cc(C(N)=O)cc(OCCCN3CCN(C(C)C)CC3)c21 [Example 14]
7 | 1000 to 10000 | 100 to 1000 | 10 to 100 |  | CCC(=O)N1CCN(CCCOc2cc(C(N)=O)cc3nc(NC(=O)c4cc(C)nn4CC)n(C/C=C/Cn4c(NC(=O)c5sc(C)nc5CC)nc5cc(C(N)=O)cc(OC)c54)c23)CC1 [Example 30]
8 | 1000 to 10000 | 100 to 1000 | 10 to 100 |  | CCc1nc(C)sc1C(=O)Nc1nc2cc(C(N)=O)cc(SC)c2n1C/C=C/Cn1c(NC(=O)c2cc(C)nn2CC)nc2cc(C(N)=O)cc(OCCCN3CCN(CC)CC3)c21 [Example 21]
9 | 1000 to 10000 | 10 to 100 | 10 to 100 | comparable or even higher activity | CCc1nc(C)sc1C(=O)Nc1nc2cc(C(N)=O)cc(SC)c2n1C/C=C/Cn1c(NC(=O)c2cc(C)nn2CC)nc2cc(C(N)=O)cc(OCCCN3CCN(C4CC4)CC3)c21 [Example 23]
10 | 1000 to 10000 | 100 to 1000 | 10 to 100 |  | CCc1nc(C)sc1C(=O)Nc1nc2cc(C(N)=O)cc(SC)c2n1C/C=C/Cn1c(NC(=O)c2cc(C)nn2CC)nc2cc(C(N)=O)cc(OCCCN3CCN(C(C)=O)CC3)c21 [Example 41]
11 | 1000 to 10000 | 100 to 1000 | 10 to 100 |  | CCc1nc(C)sc1C(=O)Nc1nc2cc(C(N)=O)cc(OC)c2n1C/C=C/Cn1c(NC(=O)c2c(F)c(C)nn2CC)nc2cc(C(N)=O)cc(OCCCN3CCOCC3)c21 [Example 48]
12 | 1000 to 10000 | 100 to 1000 | 10 to 100 |  | CCc1nc(C)sc1C(=O)Nc1nc2cc(C(N)=O)cc(OCCCN3CCOCC3)c2n1C/C=C/Cn1c(NC(=O)c2cc(C)nn2CC)nc2cc(C(N)=O)cc(OC)c21 [Example 1]
13 | 1000 to 10000 | > 1000 | 10 to 100 |  | CCc1nc(C)sc1C(=O)Nc1nc2cc(C(N)=O)cc(OCCCN3CCOCC3)c2n1C/C=C/Cn1c(NC(=O)c2c(F)c(C)nn2CC)nc2cc(C(N)=O)cc(OC)c21 [Example 47]
14 | 1000 to 10000 | 100 to 1000 | 100 to 1000 |  | CCc1nc(C)sc1C(=O)Nc1nc2cc(C(N)=O)cc(OCCCN3CCN(C)CC3)c2n1C/C=C/Cn1c(NC(=O)c2cc(C)nn2CC)nc2cc(C(N)=O)cc(OC)c21 [Example 7, (E)-N-(5-carbamoyl-1-(4-(5-carbamoyl-2-(1-ethyl-3-methyl-1H-pyrazole-5-formylamino)-7-methoxy-1H-benzo[d]imidazol-1-yl)but-2-en-1-yl)-7-(3-(4-methylpiperazin-1-yl)propoxy)-1H-benzo[d]imidazol-2-yl)-4-ethyl-2-methylthiazole-5-formylamide]
15 | 1000 to 10000 | 10 to 100 | 10 to 100 | comparable or even higher activity | CCc1nc(C)sc1C(=O)Nc1nc2cc(C(N)=O)cc(OCCCN3CCN(C(C)=O)CC3)c2n1C/C=C/Cn1c(NC(=O)c2cc(C)nn2CC)nc2cc(C(N)=O)cc(SC)c21 [Example 35]
16 | 1000 to 10000 | 10 to 100 | 10 to 100 | comparable or even higher activity | CCc1nc(C)sc1C(=O)Nc1nc2cc(C(N)=O)cc(OCCCN3CCOCC3)c2n1C/C=C/Cn1c(NC(=O)c2sc(C)nc2CC)nc2cc(C(N)=O)cc(SC)c21 [Example 50]
17 | 1000 to 10000 | 10 to 100 | < 10 | comparable or even higher activity | CCc1nc(C)sc1C(=O)Nc1nc2cc(C(N)=O)cc(OCCCN3CCOCC3)c2n1C/C=C/Cn1c(NC(=O)c2cc(C)nn2CC)nc2cc(C(N)=O)cc(SC)c21 [Example 4]
18 | 1000 to 10000 | 10 to 100 | < 10 | comparable or even higher activity | CCc1nc(C)sc1C(=O)Nc1nc2cc(C(N)=O)cc(OCCCN3CCOCC3)c2n1C/C=C/Cn1c(NC(=O)c2c(F)c(C)nn2CC)nc2cc(C(N)=O)cc(SC)c21 [Example 49]
19 | 1000 to 10000 | 100 to 1000 | 10 to 100 |  | CCc1nc(C)sc1C(=O)Nc1nc2cc(C(N)=O)cc(OCCCN3CCN(C(C)=O)CC3)c2n1C/C=C/Cn1c(NC(=O)c2cc(C)nn2CC)nc2cc(C(N)=O)cc(OC)c21 [Example 11]
20 | 1000 to 10000 | 100 to 1000 | 10 to 100 |  | CCc1nc(C)sc1C(=O)Nc1nc2cc(C(N)=O)cc(OC)c2n1C/C=C/Cn1c(NC(=O)c2sc(C)nc2CC)nc2cc(C(N)=O)cc(OCCCN3CCOCC3)c21 [Example 3]
21 | 1000 to 10000 | 100 to 1000 | 10 to 100 |  | CCc1nc(C)sc1C(=O)Nc1nc2cc(C(N)=O)cc(OCCCN3CCN(CC)CC3)c2n1C/C=C/Cn1c(NC(=O)c2cc(C)nn2CC)nc2cc(C(N)=O)cc(OC)c21 [Example 8]
22 | 1000 to 10000 | 100 to 1000 | 10 to 100 |  | CCc1nc(C)sc1C(=O)Nc1nc2cc(C(N)=O)cc(SC)c2n1C/C=C/Cn1c(NC(=O)c2cc(C)nn2CC)nc2cc(C(N)=O)cc(OCCCN3CCN(C(C)C)CC3)c21 [Example 22]
23 | 1000 to 10000 | 100 to 1000 | 10 to 100 |  | CCc1nc(C)sc1C(=O)Nc1nc2cc(C(N)=O)cc(SC)c2n1C/C=C/Cn1c(NC(=O)c2cc(C)nn2CC)nc2cc(C(N)=O)cc(OCCCN3CCN(C)CC3)c21 [Example 20]
24 | 1000 to 10000 | 100 to 1000 | 100 to 1000 |  | CCc1nc(C)sc1C(=O)Nc1nc2cc(C(N)=O)cc(OC)c2n1C/C=C/Cn1c(NC(=O)c2cc(C)nn2CC)nc2cc(C(N)=O)cc(SCCCN3CCOCC3)c21 [Example 6]
25 | 1000 to 10000 |  | 100 to 1000 |  | CCc1nc(C)sc1C(=O)Nc1nc2cc(C(N)=O)cc(OCCCN3CCN(C)CC3)c2n1C/C=C/Cn1c(NC(=O)c2cc(C)nn2CC)nc2cc(C(N)=O)cc(SC)c21 [Example 16]
26 | 1000 to 10000 |  | 100 to 1000 |  | CCc1nc(C)sc1C(=O)Nc1nc2cc(C(N)=O)cc(OC)c2n1C/C=C/Cn1c(NC(=O)c2cc(C)nn2CC)nc2cc(C(N)=O)cc(OCCCN3CCN(C)CC3)c21 [Example 12]
27 | 1000 to 10000 | 100 to 1000 | 10 to 100 |  | CCc1nc(C)sc1C(=O)Nc1nc2cc(C(N)=O)cc(OCCCN3CCN(C(C)C)CC3)c2n1C/C=C/Cn1c(NC(=O)c2cc(C)nn2CC)nc2cc(C(N)=O)cc(OC)c21 [Example 9]
